Measured values taken from PubChem BioAssay AID1963842 (Molecular Pharmacology Branch, DTP, NCI, 2024).

Tested on: 677734-321-R-J1-PDC complex spheroid viability
Assay: Anticancer human tumor 677734-321-R-J1-PDC patient-derived soft tissue sarcoma cell line growth inhibition [POLQ]
Settings: for IC50: curve of first compound; for viability, T/C: stronger effect = lower value
Outline: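 Complex spheroid viability model combining PDC tumour cells with endothelial (HUVEC) and MSC stromal cells. Novobiocin, ART-558 or RP6685 were tested singly and in combination with standard and investigational anticancer drugs. Each was titrated in half-log steps from near clinical Cmax, or from 10 microM where Cmax was unknown.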

[1] = second compound 0.0316 µM, first compound 0.0316 µM
[2] = second compound 0.0316 µM, first compound 0.1 µM
[3] = second compound 0.0316 µM, first compound 0.316 µM
[4] = second compound 0.0316 µM, first compound 1 µM
[5] = second compound 0.0316 µM, first compound 3.16 µM
[6] = second compound 0.0316 µM, first compound 10 µM
[7] = second compound 0.1 µM, first compound 0.0316 µM
[8] = second compound 0.1 µM, first compound 0.1 µM
[9] = second compound 0.1 µM, first compound 0.316 µM
[10] = second compound 0.1 µM, first compound 1 µM
[11] = second compound 0.1 µM, first compound 3.16 µM
[12] = second compound 0.1 µM, first compound 10 µM
[13] = second compound 0.316 µM, first compound 0.0316 µM
[14] = second compound 0.316 µM, first compound 0.1 µM
[15] = second compound 0.316 µM, first compound 0.316 µM
[16] = second compound 0.316 µM, first compound 1 µM
[17] = second compound 0.316 µM, first compound 3.16 µM
[18] = second compound 0.316 µM, first compound 10 µM
[19] = second compound 1 µM, first compound 0.0316 µM
[20] = second compound 1 µM, first compound 0.1 µM
[21] = second compound 1 µM, first compound 0.316 µM
[22] = second compound 1 µM, first compound 1 µM
[23] = second compound 1 µM, first compound 3.16 µM
[24] = second compound 1 µM, first compound 10 µM
[25] = second compound 3.16 µM, first compound 0.0316 µM
[26] = second compound 3.16 µM, first compound 0.1 µM
[27] = second compound 3.16 µM, first compound 0.316 µM
[28] = second compound 3.16 µM, first compound 1 µM
[29] = second compound 3.16 µM, first compound 3.16 µM
[30] = second compound 3.16 µM, first compound 10 µM
[31] = second compound 10 µM, first compound 0.0316 µM
[32] = second compound 10 µM, first compound 0.1 µM
[33] = second compound 10 µM, first compound 0.316 µM
[34] = second compound 10 µM, first compound 1 µM
[35] = second compound 10 µM, first compound 3.16 µM
[36] = second compound 10 µM, first compound 10 µM
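Also: spheroids exposed to compounds for one week.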
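For viability, T/C in this document: 100% = vehicle DMSO treated spheroids.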

SMILES: C#Cc1c(F)ccc2cc(O)cc(-c3ncc4c(N5CC6CCC(C5)N6)nc(OCC56CCCN5CC(F)C6)nc4c3F)c12 (stereo unspecified) + Nc1ccc(C#CCN(C(=O)Cc2ncc(C(F)(F)F)cc2C(F)(F)F)c2ccc(F)cc2)nn1
- IC50 (second compound 0.0316 µM): > 10 µM
- IC50 (second compound 0.1 µM): > 10 µM
- IC50 (second compound 0.316 µM): > 10 µM
- IC50 (second compound 1 µM): > 10 µM
- IC50 (second compound 3.16 µM): > 10 µM
- IC50 (second compound 10 µM): > 10 µM
- viability, T/C [1]: 104%
- viability, T/C [2]: 117%
- viability, T/C [3]: 115%
- viability, T/C [4]: 117%
- viability, T/C [5]: 115%
- viability, T/C [6]: 98.7%
- viability, T/C [7]: 106%
- viability, T/C [8]: 116%
- viability, T/C [9]: 112%
- viability, T/C [10]: 118%
- viability, T/C [11]: 98.4%
- viability, T/C [12]: 79.6%
- viability, T/C [13]: 113%
- viability, T/C [14]: 124%
- viability, T/C [15]: 96.9%
- viability, T/C [16]: 110%
- viability, T/C [17]: 103%
- viability, T/C [18]: 103%
- viability, T/C [19]: 105%
- viability, T/C [20]: 104%
- viability, T/C [21]: 109%
- viability, T/C [22]: 114%
- viability, T/C [23]: 119%
- viability, T/C [24]: 94.1%
- viability, T/C [25]: 114%
- viability, T/C [26]: 98%
- viability, T/C [27]: 122%
- viability, T/C [28]: 111%
- viability, T/C [29]: 96.8%
- viability, T/C [30]: 96.5%
- viability, T/C [31]: 107%
- viability, T/C [32]: 99.8%
- viability, T/C [33]: 112%
- viability, T/C [34]: 108%
- viability, T/C [35]: 94.8%
- viability, T/C [36]: 88.8%

SMILES: CC1COCCN1c1cc(C2(O)CC3CCC(C2)O3)c2cnn(-c3ccn[nH]3)c2n1 (stereo unspecified) + Nc1ccc(C#CCN(C(=O)Cc2ncc(C(F)(F)F)cc2C(F)(F)F)c2ccc(F)cc2)nn1
- IC50 (second compound 0.0316 µM): < 0.0316 µM
- IC50 (second compound 0.1 µM): < 0.0316 µM
- IC50 (second compound 0.316 µM): < 0.0316 µM
- IC50 (second compound 1 µM): < 0.0316 µM
- IC50 (second compound 3.16 µM): < 0.0316 µM
- IC50 (second compound 10 µM): < 0.0316 µM
- viability, T/C [1]: 36.8%
- viability, T/C [2]: 20.4%
- viability, T/C [3]: 7.94%
- viability, T/C [4]: 7.29%
- viability, T/C [5]: 8.37%
- viability, T/C [6]: 6.3%
- viability, T/C [7]: 48.2%
- viability, T/C [8]: 15%
- viability, T/C [9]: 10.1%
- viability, T/C [10]: 7.88%
- viability, T/C [11]: 10.1%
- viability, T/C [12]: 7.23%
- viability, T/C [13]: 35.1%
- viability, T/C [14]: 11.7%
- viability, T/C [15]: 8.93%
- viability, T/C [16]: 7.29%
- viability, T/C [17]: 7.85%
- viability, T/C [18]: 6.34%
- viability, T/C [19]: 44.7%
- viability, T/C [20]: 15.9%
- viability, T/C [21]: 8.7%
- viability, T/C [22]: 7.59%
- viability, T/C [23]: 8.26%
- viability, T/C [24]: 6%
- viability, T/C [25]: 45.2%
- viability, T/C [26]: 12.9%
- viability, T/C [27]: 10%
- viability, T/C [28]: 8.6%
- viability, T/C [29]: 8.2%
- viability, T/C [30]: 4.99%
- viability, T/C [31]: 35.5%
- viability, T/C [32]: 26.6%
- viability, T/C [33]: 7.13%
- viability, T/C [34]: 10.5%
- viability, T/C [35]: 7.26%
- viability, T/C [36]: 11.5%

SMILES: O=C(Nc1ccc(O)c(NS(=O)(=O)c2ccc(F)cc2)c1)c1ccc(-c2ccccc2)cc1 + Nc1ccc(C#CCN(C(=O)Cc2ncc(C(F)(F)F)cc2C(F)(F)F)c2ccc(F)cc2)nn1
- IC50 (second compound 0.0316 µM): 4.98 µM
- IC50 (second compound 0.1 µM): 4.84 µM
- IC50 (second compound 0.316 µM): 3.59 µM
- IC50 (second compound 1 µM): 4.08 µM
- IC50 (second compound 3.16 µM): 4.07 µM
- IC50 (second compound 10 µM): 3.82 µM
- viability, T/C [1]: 106%
- viability, T/C [2]: 115%
- viability, T/C [3]: 97%
- viability, T/C [4]: 106%
- viability, T/C [5]: 68.7%
- viability, T/C [6]: 21.3%
- viability, T/C [7]: 106%
- viability, T/C [8]: 102%
- viability, T/C [9]: 94%
- viability, T/C [10]: 102%
- viability, T/C [11]: 69.4%
- viability, T/C [12]: 17.1%
- viability, T/C [13]: 104%
- viability, T/C [14]: 113%
- viability, T/C [15]: 110%
- viability, T/C [16]: 103%
- viability, T/C [17]: 53.5%
- viability, T/C [18]: 22.1%
- viability, T/C [19]: 114%
- viability, T/C [20]: 109%
- viability, T/C [21]: 104%
- viability, T/C [22]: 105%
- viability, T/C [23]: 58.6%
- viability, T/C [24]: 19.4%
- viability, T/C [25]: 119%
- viability, T/C [26]: 114%
- viability, T/C [27]: 101%
- viability, T/C [28]: 111%
- viability, T/C [29]: 58.2%
- viability, T/C [30]: 19.9%
- viability, T/C [31]: 109%
- viability, T/C [32]: 115%
- viability, T/C [33]: 109%
- viability, T/C [34]: 103%
- viability, T/C [35]: 56.5%
- viability, T/C [36]: 16.5%
